Data: patent US6406866B1 (OREGON HEALTH SCIENCES UNIVERSITY, dated 2002)

How the values were obtained:
[1] = target: T1, novel mammalian opioid receptor (MSOR, LC132) (Rattus norvegicus, UniProt P35370); format: binding
T1 construct: The entire coding region of the receptor cDNA insert was subcloned in to the RcRSV vector; expressed in transfected cells

[2] = test system: untransfected COS-7 and Ltk- cells; test: Radioligand binding to membranes of untransfected cells (control); conditions: untransfected COS-7 and Ltk- cell membranes
[3] = Open-field observation of behavioral signs after peptide administration; format: in vivo, mice
Procedure: (§1) For these experiments, the peptide was administered intracerebroventricularly (i.c.v.) and intrathecally (i.t.) in mice. Immediately after peptide administration, mice were placed in transparent boxes in groups of three and behavioral signs recorded. Emphasis was placed on signs indicative of depressant, stimulant and autonomic effects of the peptide (as described by Irwin, 1968, Psychopharmacologia 13: 222). […] The effects of the peptide on horizontal (FIG. 10A) and vertical (FIG. 10B) locomotor activity was measured using Digiscan Animal Activity Monitors (Omnitech, Columbus Ohio). The values for horizontal and vertical locomotor activity represent the total number of interruptions of the horizontal and vertical sensors during the first 10 min following administration of the peptide. Data are shown as the mean ± standard error of the mean.

[4] = Horizontal and vertical locomotor activity (Digiscan Animal Activity Monitors); format: in vivo, mice; conditions: i.c.v., 0.1-10 nmol/2 μL/mouse, first 10 min
Procedure: as §1

[5] = Hot plate test of nociception; toe- and tail-pinch reflexes; format: in vivo, mice
Procedure: Groups of 6-8 male MORO mice (weight=22 g) were administered phosphate buffered saline (open circles) or varying doses of the orphanin peptide. Reaction time represents the time taken for the mice to lick their paws. The hot plate was set to 58° C., and a cutoff time of 60 sec was used. […] (designated by an asterisk). This observation was most likely related to a decrease in locomotor activity and muscle tone.

[6] = target: T2, novel mammalian MSOR opioid receptor (methadone-specific opioid receptor) (rat, UniProt P35370 1-367); test: assay not described
T2 construct: cAMP assays used whole cells; also called LC132; novel mammalian opioid receptor
T2 chain: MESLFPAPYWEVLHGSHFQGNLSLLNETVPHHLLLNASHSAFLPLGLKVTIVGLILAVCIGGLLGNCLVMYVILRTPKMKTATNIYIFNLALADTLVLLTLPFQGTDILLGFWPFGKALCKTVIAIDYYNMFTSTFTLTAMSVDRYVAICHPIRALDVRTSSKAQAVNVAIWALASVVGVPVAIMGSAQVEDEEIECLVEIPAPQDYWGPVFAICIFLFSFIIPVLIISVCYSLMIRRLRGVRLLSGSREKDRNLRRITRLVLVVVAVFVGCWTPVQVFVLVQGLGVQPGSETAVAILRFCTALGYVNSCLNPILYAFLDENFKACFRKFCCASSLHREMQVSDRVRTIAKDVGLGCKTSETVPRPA

[7] = target: T2, novel mammalian MSOR opioid receptor …; test: saturation radioligand binding (scintillation proximity assay) to membranes of MSOR-transfected CHO cells (LC-7), Scatchard analysis
[8] = target: T2, novel mammalian MSOR opioid receptor …; test: cell-based or functional assay

T1 sequence (P35370 whole entry): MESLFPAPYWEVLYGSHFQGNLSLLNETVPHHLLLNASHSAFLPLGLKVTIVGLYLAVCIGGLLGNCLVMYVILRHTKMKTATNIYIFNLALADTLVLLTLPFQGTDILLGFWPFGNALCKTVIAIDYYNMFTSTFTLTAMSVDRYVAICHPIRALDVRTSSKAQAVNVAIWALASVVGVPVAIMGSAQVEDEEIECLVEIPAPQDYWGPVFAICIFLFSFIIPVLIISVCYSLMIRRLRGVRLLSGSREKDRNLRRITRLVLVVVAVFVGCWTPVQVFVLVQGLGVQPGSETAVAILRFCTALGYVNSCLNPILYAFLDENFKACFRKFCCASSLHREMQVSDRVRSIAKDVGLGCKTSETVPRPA

C[C@@H](NC(=O)[C@@H](N)Cc1ccc(O)cc1)C(=O)NCC(=O)N(C)[C@@H](Cc1ccccc1)C(=O)NCCO [DAMGO, Tyr-DAla-Gly-Met-Phe-Gly-ol]
specific binding of the radioactively-labeled opioid agonist or antagonist [1]: no specific binding

CCC12CCN(CC3(O)CC3)C(Cc3ccc(O)cc31)C2(C)C (centres unmarked) [bremacozine]
specific binding of the radioactively-labeled opioid agonist or antagonist [1]: no specific binding

CN1CC[C@]23c4c5ccc(O)c4O[C@H]2[C@@H](O)CC[C@H]3[C@H]1C5 [dihydromorphine]
specific binding of the radioactively-labeled opioid agonist or antagonist [1]: no specific binding

CC[C@]12CCN(CC3CC3)[C@H](C(=O)c3ccc(O)cc31)[C@@H]2C [ethylketocyclazocine]
specific binding of the radioactively-labeled opioid agonist or antagonist [1]: no specific binding

CCC(=O)C(CC(C)N(C)C)(c1ccccc1)c1ccccc1 (centres unmarked) [methadone]
Bmax [1]: 400-450 femtomoles/μg protein | specific binding of the radioactively-labeled opioid agonist or antagonist [1]: specific binding was found | endogenous specific binding of the radioligand [2]: no or negligible amounts

C=CCN1CC[C@]23c4c5ccc(O)c4O[C@H]2C(=O)CC[C@@]3(O)[C@H]1C5 [naloxone]
endogenous specific binding of the radioligand [2]: endogenous low levels of specific

CC(C)C[C@H](NC(=O)[C@H](CCCCN)NC(=O)[C@H](CCCNC(=N)N)NC(=O)[C@H](C)NC(=O)[C@H](CO)NC(=O)[C@H](CCCCN)NC(=O)[C@H](CCCNC(=N)N)NC(=O)[C@H](C)NC(=O)CNC(=O)[C@@H](NC(=O)[C@H](Cc1ccccc1)NC(=O)CNC(=O)CNC(=O)[C@@H](N)Cc1ccccc1)[C@@H](C)O)C(=O)N[C@@H](C)C(=O)N[C@@H](CC(N)=O)C(=O)N[C@@H](CCC(N)=O)C(=O)O [orphanin FQ]
ataxia [3]: ataxia | muscle tone [3]: decrease in muscle tone | righting reflex [3]: loss of righting reflex | influence on locomotor activity ([3]; i.c.v. and i.t. administration): profound influence on locomotor activity | horizontal locomotion [4]: decrease | vertical locomotion [4]: decrease | toe- and tail-pinch reflexes ([5]; all doses tested): normal | inhibition of nociception ([5]; i.c.v., all doses except the highest, 10 nmol/mouse): No significant inhibition | analgesic effect in hot plate test ([5]; i.c.v., hot plate 58° C., cutoff 60 sec): little analgesic effect | analgesic effect ([5]; i.t., 2.5-10 nmol/4 μL/animal): No analgesic effect | motor effects at the highest dose ([5]; i.t., highest dose): hindlimb paralysis and decrease in locomotor activity

β-endorphin
specific binding of the radioactively-labeled opioid agonist or antagonist [1]: no specific binding

YGGFLRRQFKVVT [dynorphin B]
binding result [6]: no binding

YGGFL [Leu-Enkephalin]
binding result [6]: no binding

B1: monoiodinated Y14-orphanin FQ (peptide)
peptide: FGGFTGARKSARKYANQ
modifications: monoiodotyrosine at position 14 (125I in the binding assay), made by the chloramine T method
notes: also called I-Y14
Kd [7]: 300 pM

FGGFTGARKSARKYANQ [Y14-orphanin FQ]
cAMP inhibition assay in MSOR-transfected CHO cells, EC50 [8]: 1000 pM

YGGFLRRIRPKLKWDNQ [dynorphin A]
binding result [6]: no binding

YGGFMTSEKSQTPLVT [α-endorphin]
binding result [6]: no binding
